Data published in patent publication US12662451B2, “Chemical compounds and uses thereof” (GLAXOSMITHKLINE INTELLECTUAL PROPERTY (NO.4) LIMITED, priority 2023, dated 2026).

How the values were obtained:
[1] = test system: SW48 human colorectal cancer cells (MSI-H cancer cells); test: SW48 cell viability, CellTiter-Glo, 120 hours (Example B)
Description: SW48 human colorectal cancer cells (MSI-H cancer cells) were obtained from the American Type Culture Collection and maintained in growth medium composed of RPMI-1640 supplemented with 10% fetal bovine serum. Cells were maintained in a humidified 5% CO2 incubator at 37° C. Cell dissociation was conducted using TrypLE Select to detach cells from culture flasks. Following dissociation, cells were centrifuged briefly and resuspended in assay medium RPMI-1640+10% fetal bovine serum. Black 384-well assay plates were prepared from source plates of DMSO and compounds dissolved in DMSO prior to cell dispensation. These source plates were prepared in eleven point, 3-fold serial dilutions from 10 mM stocks stored at 4° C. Compounds and DMSO controls were dispensed into assay plates at 150 nanoliters per well from source plates using Labcyte Echo 555 or Echo 655T dispensers with Column 6 and Column 18 containing DMSO only. Cells were then seeded into prepared assay plates in 50 microliters assay medium at 250 cells per well into Columns 1 thru 17 and Columns 19-24. Assay medium without cells was added to column 18 to serve as a surrogate for 100% cell cytotoxicity. Following incubation for 120 hours in a humidified 5% CO2 incubator at 37° C., cellular ATP concentration of each well was measured and used as a surrogate of cell viability. This was performed by adding 50 microliters of CellTiter-Glo reagent to each well followed by a 10-minute incubation at room temperature. Luminescence was measured on a Synergy Neo or Synergy Neo2 multimode plate reader. Compound cytotoxic response (% C) was normalized to the robust means of column 6 (Control 1, 0% Cytotoxicity) and column 18 (Control 2, 100% Cytotoxicity) and normalized % cytotoxicity (% C) calculated. % C=100−100*((Compound−Control 2)/(Control1−Control2)). These normalized data were then used to determine a 50% cytotoxic response (CC50) using 4-parameter logistic curve model 201 in Activity Base XE:
[formula] • where A=minimum asymptote (% cytotoxicity), B=maximum asymptote (% cytotoxicity), C=Log CC50 (pCC50), D=Hill slope, and x=[inhibitor], (M).

[2] = biological target: T1, recombinant full-length WRN protein (1-1432) (Homo sapiens, UniProt Q14191); test: WRN unwinding activity, fluorogenic 384-well assay (Example A); format: biochemical; settings: WRN unwinding activity, Table 2; for IC50: 4 hr, read-out: 4 hr UNW pIC50 (converted)
T1 construct: recombinant full-length WRN protein (1-1432)
T1 sequence (Q14191 whole entry): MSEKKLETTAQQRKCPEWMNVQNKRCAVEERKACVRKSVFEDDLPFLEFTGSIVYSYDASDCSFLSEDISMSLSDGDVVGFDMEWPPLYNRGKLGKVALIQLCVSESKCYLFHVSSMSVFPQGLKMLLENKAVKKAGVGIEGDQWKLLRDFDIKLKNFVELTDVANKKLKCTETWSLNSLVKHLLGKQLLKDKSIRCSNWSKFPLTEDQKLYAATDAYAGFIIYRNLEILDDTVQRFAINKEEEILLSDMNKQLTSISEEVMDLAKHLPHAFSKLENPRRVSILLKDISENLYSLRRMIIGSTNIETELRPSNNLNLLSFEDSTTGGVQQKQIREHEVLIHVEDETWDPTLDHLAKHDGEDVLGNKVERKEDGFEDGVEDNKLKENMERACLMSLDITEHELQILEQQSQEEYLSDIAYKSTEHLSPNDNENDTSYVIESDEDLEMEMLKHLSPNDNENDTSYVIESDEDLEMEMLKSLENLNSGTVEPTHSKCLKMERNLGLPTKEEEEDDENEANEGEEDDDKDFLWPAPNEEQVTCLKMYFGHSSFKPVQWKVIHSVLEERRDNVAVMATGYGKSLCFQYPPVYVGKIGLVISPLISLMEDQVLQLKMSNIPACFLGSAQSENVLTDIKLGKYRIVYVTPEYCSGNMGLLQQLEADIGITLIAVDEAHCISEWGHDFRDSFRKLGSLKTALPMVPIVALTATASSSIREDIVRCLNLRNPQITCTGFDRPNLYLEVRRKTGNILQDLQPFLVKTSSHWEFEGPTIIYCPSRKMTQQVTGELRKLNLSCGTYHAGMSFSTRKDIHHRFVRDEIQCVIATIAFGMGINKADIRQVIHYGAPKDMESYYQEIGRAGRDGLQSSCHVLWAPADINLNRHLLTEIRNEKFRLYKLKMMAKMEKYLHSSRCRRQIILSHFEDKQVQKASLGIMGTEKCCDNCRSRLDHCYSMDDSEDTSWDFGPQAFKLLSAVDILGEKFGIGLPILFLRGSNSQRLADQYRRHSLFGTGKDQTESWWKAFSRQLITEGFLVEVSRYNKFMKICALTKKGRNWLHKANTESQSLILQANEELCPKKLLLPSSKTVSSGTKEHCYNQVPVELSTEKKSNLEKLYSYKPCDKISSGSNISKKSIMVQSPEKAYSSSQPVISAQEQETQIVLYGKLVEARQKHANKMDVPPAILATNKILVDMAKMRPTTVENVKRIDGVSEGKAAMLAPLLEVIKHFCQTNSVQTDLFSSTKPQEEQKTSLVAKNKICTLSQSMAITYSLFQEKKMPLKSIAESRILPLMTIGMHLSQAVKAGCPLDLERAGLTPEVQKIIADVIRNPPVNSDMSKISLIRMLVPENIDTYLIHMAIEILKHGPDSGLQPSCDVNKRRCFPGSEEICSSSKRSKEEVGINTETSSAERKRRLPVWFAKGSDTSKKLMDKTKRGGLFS
How it was run: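 Read-out is end-point unwinding of a fluorophore/quencher duplex (ex 525, em 598 nm) after 60 min with 200 μM ATP and 12 nM DNA (2× stocks), EDTA stop. Compound first sat 4 h with 200 pM WRN (2× stock) in pH 8.0 Tris buffer; four-parameter fit gives pIC50.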

[3] = test system: SW48 human colorectal cancer cells; test: Calculated free drug potency in SW48 cell assay, corrected with media free fraction (Example C); format: cell-based; settings: SW48 pCC50 corrected with measured free fraction in cell assay media
Description: It was observed that the compounds of the present disclosure are bound to cell assay media to various degrees, which would affect the cellular potency analysis in Example B. To measure free drug potency, concentrations used in the cell assays were corrected with the measured free fraction determined in the cell assay media. Compounds were incubated in a rapid equilibrium dialysis (RED) at a nominal concentration of 1 μM, using a dialysis buffer of phosphate-buffered saline (PBS, 100 mM sodium phosphate+150 mM sodium chloride, pH 7.4). The test compound was spiked into the medium. Aliquots were added to the donor wells of a RED plate in triplicate, and blank PBS was added to each receiver well, at volumes recommended by the manufacturer. Plates were incubated with shaking at 200 rpm for 4 hours at 37° C. The resultant samples were analysed by LC-MS/MS using a specific and sensitive method. Results were reported as analyte:internal standard peak area ratios (PARs), and the percent unbound was calculated with the following equation:
[formula] where Cfinal=PAR in the T=240 minute sample; Cinitial=PAR in the T=0 minute sample. Cell culture media unbound percentage and calculated free drug potency of selected compounds along with their measured potency from Example B are shown in Table 3.

[4] = SW48 cell viability, 120 hours incubation, Table 2
[5] = measured potency from Example B, as repeated in Table 3

## Cc1nc2cc(S(=O)(=O)N(C)c3ccc([C@H]4CCC[C@@H](C(=O)Nc5ccc(C(F)(F)F)cc5F)[C@@H]4C(=O)O)cc3)cc(C3CCCN(C)C3)c2n1C (relative stereo) [Example 270, (1R,2R,6S)-2-((2-fluoro-4-(trifluoromethyl)phenyl)carbamoyl)-6-(4-((N,1,2-trimethyl-7-((S*)-1-methylpiperidin-3-yl)-1H-benzo[d]imidazole)-5-sulfonamido)phenyl)cyclohexane-1-carboxylic acid]
[1]; [4]
  SW48 pCC50: 6.5
[1]; [5]
  SW48 pCC50: 6.5
[2]
  4 hr UNW pIC50: 9.0
[3]
  Free Drug SW48 pCC50: 7.18

## Cc1nc2cc(S(=O)(=O)N(C)c3ccc([C@H]4C[C@@H]5OCC[C@@H]5[C@@H](C(=O)Nc5ccc(C(F)(F)F)cc5F)[C@@H]4C(=O)O)cc3)ccc2n1C (single isomer, unassigned) [Example 158]
[1]; [4]
  SW48 pCC50: 5.4
[1]; [5]
  SW48 pCC50: 5.4
[2]
  IC50: 31.6 nM
[3]
  Free Drug SW48 pCC50: 6.03

## Cc1nc2cc(S(=O)(=O)N(C)c3ccc([C@H]4C[C@@H](N5CCOCC5)C[C@@H](C(=O)Nc5ccc(C(F)(F)F)cc5F)[C@@H]4C(=O)O)cc3)ccc2n1C (single isomer, unassigned) [Example 340]
[1]; [4]
  SW48 pCC50: 5.1
[1]; [5]
  SW48 pCC50: 5.1
[2]
  IC50: 7.94 nM
[3]
  Free Drug SW48 pCC50: 5.99

## Cc1nc2cc(S(=O)(=O)N(C)c3ccc([C@H]4C[C@@H](N5CCC[C@@H](F)C5)C[C@@H](C(=O)Nc5ccc(C(F)(F)F)cc5F)[C@@H]4C(=O)O)cc3)ccc2n1C (single isomer, unassigned) [Example 347, rel-(1R*,2R*,4S*,6S*)-2-((2-fluoro-4-(trifluoromethyl)phenyl)carbamoyl)-4-((R)-3-fluoropiperidin-1-yl)-6-(4-((N,1,2-trimethyl-1H-benzo[d]imidazole)-5-sulfonamido)phenyl)cyclohexane-1-carboxylic acid]
[1]; [4]
  SW48 pCC50: 5.2
[1]; [5]
  SW48 pCC50: 5.2
[2]
  IC50: 10 nM
[3]
  Free Drug SW48 pCC50: 6.17

## Cc1nc2cc(S(=O)(=O)N(C)c3ccc([C@H]4C[C@@H](N5CCC[C@@H](F)C5)C[C@@H](C(=O)Nc5ccc(C(F)(F)F)cc5F)[C@@H]4C(=O)O)cc3)ccc2n1C (single isomer, unassigned) [Example 376, rel-(1R*,2R*,4R*,6S*)-2-((2-fluoro-4-(trifluoromethyl)phenyl)carbamoyl)-4-((R)-3-fluoropiperidin-1-yl)-6-(4-((N,1,2-trimethyl-1H-benzo[d]imidazole)-5-sulfonamido)phenyl)cyclohexane-1-carboxylic acid]
[1]; [4]
  SW48 pCC50: 7.1
[1]; [5]
  SW48 pCC50: 7.1
[2]
  IC50: 2.51 nM
[3]
  Free Drug SW48 pCC50: 7.70

## Cc1nc2cc(S(=O)(=O)N(C)c3ccc([C@@H]4C[C@@H]5COC[C@@H]5[C@@H](C(=O)Nc5ccc(C(F)(F)F)cc5F)[C@@H]4C(=O)O)cc3)ccc2n1C (single isomer, unassigned) [Example 390]
[1]; [4]
  SW48 pCC50: 5.7
[1]; [5]
  SW48 pCC50: 5.7
[2]
  IC50: 6.31 nM
[3]
  Free Drug SW48 pCC50: 6.49

## CN(c1ccc([C@H]2CCC[C@@H](C(=O)Nc3ccc(C(F)(F)F)cc3F)[C@@H]2C(=O)O)cc1)S(=O)(=O)c1ccc(Br)c(O)c1 [Example 274, (1R,2S,6R)-2-(4-((4-bromo-3-hydroxy-N-methylphenyl)sulfonamido)phenyl)-6-((2-fluoro-4-(trifluoromethyl)phenyl)carbamoyl)cyclohexane-1-carboxylic acid]
[1]; Homo sapiens, SW48, 120 h, read-out: SW48 pCC50, SW48 cell viability, 120 hours incubation (converted), Table 2
  CC50: 15800 nM
[2]
  IC50: 15.8 nM
